Assay results taken from patent US20070142389A1, “PIPERIDINE DERIVATIVES” (PFIZER INC., priority 2005, published 2007).
pKi: −log10 of the molar value. Like-named read-outs stand apart in the source and are kept apart here.

Key:
[1] = target: T1, human norepinephrine transporter (Homo sapiens, UniProt P23975); test: hNET Receptor Binding ([125I]-RTI-55 displacement, HEK-293 membranes); settings: hNET, HEK-293 cell membranes, 50 pM [125I]-RTI-55, Ki from IC50 by Cheng-Prusoff; read-out: NET Ki
T1 construct: expressed in transfected cells; host or cells: HEK-293
Procedure: (§1) Cell pastes of HEK-293 cells transfected with a human norepinephrine transporter cDNA were prepared. The cell pastes were resuspended in 400 to 700 mL of Krebs-HEPES assay buffer (25 mM HEPES, 122 mM NaCl, 3 mM KCl, 1.2 mM MgSO4, 1.3 mM CaCl2, and 11 mM glucose, pH 7.4) with a Polytron homogenizer at setting 7 for 30 seconds. Aliquots of membranes (5 mg/mL protein) were stored in liquid nitrogen until used.
The binding assay was set up in Beckman deep-well polypropylene plates with a total volume of 250 μL containing: compound of one of the Examples (10^−5M to 10^−12M), cell membranes, and 50 pM [^125I]-RTI-55 (Perkin Elmer, NEX-272; specific activity 2200 Ci/mmol). The reaction was incubated by gentle agitation for 90 minutes at room temperature and was terminated by filtration through Whatman GF/C filter plates using a Brandel 96-well plate harvester. Scintillation fluid (100 μL) was added to each well, and bound [^125I]-RTI-55 was determined using a Wallac Trilux Beta Plate Counter. Test compounds were run in duplicate, and specific binding was defined as the difference between binding in the presence and absence of 10 μM desipramine.
(§2) Excel and GraphPad Prism software were used for data calculation and analysis. IC50 values were converted to Ki values using the Cheng-Prusoff equation.

[2] = target: T2, human serotonin transporter (Homo sapiens, UniProt P31645); test: hSERT Receptor Binding ([125I]-RTI-55 displacement, HEK-293 membranes); settings: hSERT, HEK-293 cell membranes, 50 pM [125I]-RTI-55, Ki from IC50 by Cheng-Prusoff; read-out: SERT Ki
T2 construct: expressed in transfected cells; host or cells: HEK-293
Procedure: as §1, with “serotonin” for “norepinephrine”, “Setting” for “setting”, “(about 2.5” for “(5”
Assays were set up in FlashPlates pre-coated with 0.1 % PEI in a total volume of 250 μL containing: compound of one of the Examples (10^−5M to 10^−12M), cell membanes, and 50 pM [^125l]-RTI-55 (Perkin Elmer, NEX-272; specific activity 2200 Ci/mmol). The reaction was incubated and gently agitated for 90 minutes at room temperature, and terminated by removal of assay volume. Plates were covered, and bound [^125I]-RTI-55 was determined using a Wallac Trilux Beta Plate Counter. Test compounds were run in duplicate, and specific binding was defined as the difference between binding in the presence and absence of 10 μM citalopram.
as §2

[3] = test system: capsaicin-induced mechanical allodynia in a rat; test: rat model of capsaicin-induced mechanical allodynia; type: in vivo; settings: sc, read-out: % Inhibition of Allodynia
Procedure: Compounds of the present invention may be assayed for their ability to alleviate capsaicin-induced mechanical allodynia in a rat (e.g., Sluka (2002) J of Neuroscience, 22(13): 5687-5693). For example, a rat model of capsaicin-induced mechanical allodynia was carried out as follows:
On day 0, male Sprague-Dawley rats (about 150 g each) in the dark cycle were placed in suspended wire-bottom cages and allowed to acclimate for 0.5 hour in a darkened, quiet room. The day 0 paw withdrawal threshold (PWT) was determined on the left hind paw by Von Frey hair assessment using the Dixon up and down method. After assessment, the plantar muscle of the right hind paw was injected with 100 μL capsaicin (0.25% (w/v) in 10% ethanol, 10% Tween 80, in sterile saline). On day 6 the PWT of the left hind paw (contralateral from injection site) was determined for each animal. Animals from the day 6 prereads with PWT ≦11.7 g were considered allodynic responders and were regrouped so that each cage had similar mean PWT values. On day 7, responders were dosed subcutaneously with 10 mg compound/kg body weight, or with vehicle alone. The vehicle was phosphate buffered saline containing 2% Cremophor® EL (BASF Corp., Florham Park, N.J.). The contralateral PWT values were determined at 1 hour after the single dose, with the investigator blinded to the dosing scheme.
For each animal, the day 6 PWT value was subtracted from the 1 hour PWT value to give a delta PWT value that represents the change in PWT due to the 1 hour drug treatment. In addition, the day 6 PWT was subtracted from the day 0 PWT to give the baseline window of allodynia present in each animal. To determine % inhibition of allodynia of each animal normalized for vehicle controls, the following formula was used: % Inhibition of Allodynia =100× [(Delta PWT(drug)—mean Delta PWT(vehicle))/(Baseline—mean Delta PWT(vehicle))].
The mean percent inhibition of allodynia values (for eight animals assayed for each compound) +/− the standard error of the mean (SEM) are shown in Table 2.

[4] = male Sprague-Dawley rats, 10 mg/kg subcutaneously, PWT 1 hour after single dose, mean +/- SEM of eight animals, normalized for vehicle

T2 sequence (P31645 whole entry): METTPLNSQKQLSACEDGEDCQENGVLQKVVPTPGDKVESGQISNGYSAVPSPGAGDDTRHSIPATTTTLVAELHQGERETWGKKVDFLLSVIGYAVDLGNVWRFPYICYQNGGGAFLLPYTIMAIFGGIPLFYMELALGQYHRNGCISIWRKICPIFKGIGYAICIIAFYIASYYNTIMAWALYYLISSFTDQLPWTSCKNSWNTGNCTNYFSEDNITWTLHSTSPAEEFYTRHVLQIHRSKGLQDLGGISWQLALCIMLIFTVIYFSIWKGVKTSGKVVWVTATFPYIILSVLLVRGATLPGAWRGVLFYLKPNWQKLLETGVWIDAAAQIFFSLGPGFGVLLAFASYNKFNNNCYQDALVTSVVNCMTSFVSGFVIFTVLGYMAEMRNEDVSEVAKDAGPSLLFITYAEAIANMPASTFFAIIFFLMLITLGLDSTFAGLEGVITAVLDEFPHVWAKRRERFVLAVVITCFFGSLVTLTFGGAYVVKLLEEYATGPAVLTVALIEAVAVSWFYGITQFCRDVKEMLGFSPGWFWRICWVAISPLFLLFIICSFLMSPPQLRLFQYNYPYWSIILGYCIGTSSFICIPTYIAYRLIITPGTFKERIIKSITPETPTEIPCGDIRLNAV
T1 sequence (P23975 whole entry): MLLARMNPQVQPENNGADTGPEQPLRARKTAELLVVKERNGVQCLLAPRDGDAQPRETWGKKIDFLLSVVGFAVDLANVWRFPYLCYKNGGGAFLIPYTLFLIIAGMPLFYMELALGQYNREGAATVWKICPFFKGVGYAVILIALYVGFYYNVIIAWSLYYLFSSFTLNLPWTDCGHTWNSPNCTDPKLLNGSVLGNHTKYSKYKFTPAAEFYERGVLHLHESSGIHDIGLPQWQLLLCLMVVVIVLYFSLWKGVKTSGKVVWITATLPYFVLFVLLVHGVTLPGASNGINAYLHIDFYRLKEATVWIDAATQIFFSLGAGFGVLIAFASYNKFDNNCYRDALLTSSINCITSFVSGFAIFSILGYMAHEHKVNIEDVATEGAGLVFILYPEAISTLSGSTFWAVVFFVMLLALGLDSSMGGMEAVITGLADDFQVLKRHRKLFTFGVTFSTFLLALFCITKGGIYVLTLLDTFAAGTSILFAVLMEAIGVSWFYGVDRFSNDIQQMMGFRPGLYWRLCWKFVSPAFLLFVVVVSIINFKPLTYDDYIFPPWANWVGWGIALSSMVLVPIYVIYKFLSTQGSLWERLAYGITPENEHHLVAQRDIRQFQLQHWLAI

| Structure (SMILES) | pKi [1] | pKi [2] | inhibition in vivo at 10 mg/kg [3, 4] | inhibition in vivo at 10 mg/kg ([3]; 1 h) |
| --- | --- | --- | --- | --- |
| CCOc1ncccc1OC[C@H]1CNCC[C@@H]1c1ccccc1 (single isomer, unassigned) [Example 1] | 8.42 | 7.62 | 82.3% |  |
| CCOc1ncccc1OC[C@H]1CNCC[C@@H]1c1ccccc1 [Example 2, (3R,4S)-2-Ethoxy-3-(4-phenyl-piperidin-3-ylmethoxy)-pyridine] | 5.48 | 8.19 | 1.4% |  |
| COc1ncccc1OC[C@@H]1CNCC[C@H]1c1ccccc1 [Example 7, (3S,4R)-2-Methoxy-3-(4-phenyl-piperidin-3-ylmethoxy)-pyridine] | 8.48 | 7.75 | 67.3% |  |
| CCCOc1ncccc1OC[C@@H]1CNCC[C@H]1c1ccccc1 [Example 9, (3S,4R)-3-(4-Phenyl-piperidin-3-ylmethoxy)-2-propoxy-pyridine] | 8.52 | 7.76 | 29.5% |  |
| COCCOc1ncccc1OC[C@@H]1CNCC[C@H]1c1ccccc1 [Example 11, (3S,4R)-2-(2-Methoxy-ethoxy)-3-(4-phenyl-piperidin-3-ylmethoxy)-pyridine] | 8.34 | 6.72 | 77.3% |  |
| CC(C)Oc1ncccc1OC[C@@H]1CNCC[C@H]1c1ccccc1 [Example 12, (3S,4R)-2-lsopropoxy-3-(4-phenyl-piperidin-3-ylmethoxy)-pyridine] | 8.38 | 7.39 | 66.4% |  |
| COCCCOc1ncccc1OC[C@@H]1CNCC[C@H]1c1ccccc1 [Example 14, (3S,4R)-2-(3-Methoxy-propoxy)-3-(4-phenyl-piperidin-3-ylmethoxy)-pyridine] | 7.92 | 6.79 | 22.7% |  |
| CCCc1ncccc1OC[C@@H]1CNCC[C@H]1c1ccccc1 [Example 17, (3S,4R)-3-(4-Phenyl-piperidin-3-ylmethoxy)-2-propyl-pyridine] | 7.88 | 7.66 | 2.6% |  |
| CNC(=O)c1ccc(OC[C@@H]2CNCC[C@H]2c2ccccc2)cc1 [Example 29, (3S,4R)-N-Methyl-4-(4-phenyl-piperidin-3-ylmethoxy)-benzamide] | 6.51 | 6.01 |  |  |
| CNC(=O)c1ccc(OC[C@@H]2CNCC[C@H]2c2ccccc2)c(OC)c1 [Example 30, (3S,4R)-3-Methoxy-N-methyl-4-(4-phenyl-piperidin-3-ylmethoxy)-benzamide] | 6.27 | 6.48 |  |  |
| c1ccc([C@@H]2CCNC[C@H]2COc2ccnc3ccsc23)cc1 [Example 35, (3S,4R)-7-(4-Phenyl-piperidin-3-ylmethoxy)-thieno[3,2-b]pyridine] | 7.84 | 8.08 |  | 5.5% |

The next lines start with results.

| pKi [1] | pKi [2] | Structure (SMILES) | inhibition in vivo at 10 mg/kg [3, 4] | inhibition in vivo at 10 mg/kg ([3]; 1 h) |
| --- | --- | --- | --- | --- |
| 6.99 | 6.05 | COCc1ncccc1OC[C@@H]1CNCC[C@H]1c1ccccc1 [Example 31, (3S,4R)-2-Methoxymethyl-3-(4-phenyl-piperidin-3-ylmethoxy)-pyridine] |  |  |
| 5.53 | 6.06 | CN(C)C(=O)c1ccc(OC[C@@H]2CNCC[C@H]2c2ccccc2)cc1 [Example 32, (3S,4R)-N,N-Dimethyl-4-(4-phenyl-piperidin-3-ylmethoxy)-benzamide] |  |  |
| 8.07 | 7.74 | NC(=O)c1ccc(OC[C@@H]2CNCC[C@H]2c2ccccc2)c(Cl)c1 [Example 33, (3S,4R)-3—CHloro-4-(4-phenyl-piperidin-3-ylmethoxy)-benzamide] |  |  |
| 5.84 | 5.46 | Cc1cc(C(N)=O)cc(C)c1OC[C@@H]1CNCC[C@H]1c1ccccc1 [Example 34, (3S,4R)-3,5-Dimethyl-4-(4-phenyl-piperidin-3-ylmethoxy)-benzamide] |  |  |
| 6.99 | 7.86 | COc1cc(C#N)ccc1OC[C@@H]1CNCC[C@H]1c1ccccc1 [Example 36, (3S,4R) 3-Methoxy-4-(4-phenyl-piperidin-3-ylmethoxy)-benzonitrile] |  |  |
| 5.99 | 6.37 | NC(=O)c1cc(Cl)ccc1OC[C@@H]1CNCC[C@H]1c1ccccc1 [Example 37, (3S,4R)-5—CHloro-2-(4-phenyl-piperidin-3-ylmethoxy)-benzamide] |  |  |
| 7.92 | 6.76 | NC(=O)c1ccc(OC[C@@H]2CNCC[C@H]2c2ccccc2)cc1 [Example 38, (3S,4R)-4-(4-Phenyl-piperidin-3-ylmethoxy)-benzamide] | 0.2% |  |
| 6.84 | 6.14 | NC(=O)c1ncccc1OC[C@@H]1CNCC[C@H]1c1ccccc1 [Example 39, (3S,4R)-3-(4-Phenyl-piperidin-3-ylmethoxy)-pyridine-2-carboxylic acid amide] |  |  |
| 6.12 | 5.25 | CS(=O)(=O)c1ccccc1OC[C@@H]1CNCC[C@H]1c1ccccc1 [Example 40, (−)-(3S,4R)-3-(2-Methanesulfonyl-phenoxymethyl)-4-phenyl-piperidine] |  |  |
| 8.41 | 8.57 | COc1cccc(F)c1OC[C@@H]1CNCC[C@H]1c1ccccc1 [Example 41, (3S,4R)-3-(2-Fluoro-6-methoxy-phenoxymethyl)-4-phenyl-piperidine] |  |  |
| 8.77 | 6.20 | N#Cc1ccccc1OC[C@@H]1CNCC[C@H]1c1ccccc1 [Example 42, (3S, 4R)-2-(4-Phenyl-piperidin-3-ylmethoxy)-benzonitrile] |  |  |
| 7.84 | 7.05 | CCOc1cccnc1OC[C@@H]1CNCC[C@H]1c1ccccc1 [Example 43, (3S,4R)-3-Ethoxy-2-(4-phenyl-piperidin-3-ylmethoxy)-pyridine] |  |  |
| 7.48 | 6.80 | COc1cccnc1OC[C@@H]1CNCC[C@H]1c1ccccc1 [Example 44, (3S,4R)-3-Methoxy-2-(4-phenyl-piperidin-3-ylmethoxy)-pyridine] |  |  |
| 7.44 | 7.14 | COc1nccnc1OC[C@@H]1CNCC[C@H]1c1ccccc1 [Example 45, (3S,4R)-2-Methoxy-3-(4-phenyl-piperidin-3-ylmethoxy)-pyrazine] |  |  |
| 6.63 | 6.81 | Cc1cccc(OC[C@@H]2CNCC[C@H]2c2ccccc2)n1 [Example 46, (−)-(3S,4R)-2-Methyl-6-(4-phenyl-piperidin-3-ylmethoxy)-pyridine] |  |  |
